# Values joined by “and” are separate entries in the source; they are usually repeats but may differ in a detail not shown here. Equal entries are not always repeated.
# Experiments:
# Test in all cases: G assay PDZ-PL binding
# DLG1 domain 1 = target: T1, DLG1 domain 1 (Homo sapiens, UniProt Q12959, R278Q); details: vs GST only well, peptide 10 uM, protein 5
# T1 construct: made in house; host or cells: E. coli (DH5alpha, BL21 or JM109)
# Method in brief: (§1)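 Plate ELISA: anti-GST antibody coat, BSA block, then GST/PDZ fusion (GST alone as negative control). Biotinylated PL peptide 20 uM (10 uM in G′ variant) added, 10 min 4 °C plus 20 min 25 °C; streptavidin-HRP, TMB, absorbance 450 nm.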
# Densin domain 1 = target: T2, Densin domain 1 (Homo sapiens, UniProt Q96NW7); details: peptide 10 uM, protein 5
# T2 construct: made in house; host or cells: E. coli (DH5alpha or BL-21)
# Method in brief: as §1
# EBP50 #167.2 domain 1 = target: T3, EBP50 #167.2 domain 1 (Homo sapiens, UniProt O14745); details: peptide 10 uM, protein 5
# T3 construct: made in house; host or cells: E. coli (DH5alpha or BL-21)
# Method in brief: as §1
# ERBIN domain 1 = target: T4, ERBIN domain 1 (Homo sapiens, UniProt Q96RT1); details: peptide 10 uM, protein 5
# T4 construct: made in house; host or cells: E. coli (DH5alpha, BL21 or JM109)
# Method in brief: as §1
# KIAA1634 domain 5 = target: T5, KIAA1634 domain 5 (Homo sapiens, UniProt Q5TCQ9); details: peptide 10 uM, protein 5
# T5 construct: made in house; host or cells: E. coli (DH5alpha or BL-21)
# Method in brief: as §1
# LIM Mystique domain 1 = target: T6, LIM Mystique domain 1 (Homo sapiens, UniProt Q96JY6); details: peptide 10 uM, protein 5
# T6 construct: made in house; host or cells: E. coli (DH5alpha, BL21 or JM109), vector pGEX-3X
# Method in brief: as §1
# LIM-RIL domain 1 = target: T7, LIM-RIL domain 1 (Homo sapiens, UniProt P50479, A39S/DEL20-20); details: peptide 10 uM, protein 5
# T7 construct: made in house; host or cells: E. coli (DH5alpha or BL-21)
# Method in brief: as §1
# MAGI 1 domain 6 = target: T8, MAGI 1 domain 6 (Homo sapiens, UniProt Q96QZ7); details: peptide 10 uM, protein 5
# T8 construct: made in house; host or cells: E. coli (DH5alpha, BL21 or JM109), vector pGEX-3X
# Method in brief: as §1
# Magi2 domain 3 = target: T9, Magi2 domain 3 (Homo sapiens, UniProt Q86UL8); details: peptide 10 uM, protein 5
# T9 construct: made in house; host or cells: E. coli (DH5alpha or BL-21)
# Method in brief: as §1
# NeDLG domain 2 = target: T10, NeDLG domain 2 (Homo sapiens, UniProt Q92796); details: vs GST only well, peptide 10 uM, protein 5
# T10 construct: made in house; host or cells: E. coli (DH5alpha, BL21 or JM109)
# Method in brief: as §1
# Shank 3 domain 1 = target: T11, Shank 3 domain 1 (Homo sapiens, UniProt Q9BYB0); details: peptide 10 uM, protein 5
# T11 construct: made in house; host or cells: E. coli (DH5alpha or BL-21)
# Method in brief: as §1
# TAX IP 2 domain 1 = target: T12, TAX IP 2 domain 1 (Homo sapiens, UniProt O14908); details: peptide 10 uM, protein 5
# T12 construct: made in house; host or cells: E. coli (DH5alpha, BL21 or JM109)
# Method in brief: as §1
# X-11 beta domain 1 = target: T13, X-11 beta domain 1 (Homo sapiens, UniProt Q99767); details: peptide 10 uM, protein 5
# T13 construct: made in house; host or cells: E. coli (DH5alpha, BL21 or JM109)
# Method in brief: as §1
# ZO-1 domain 2 = target: T14, ZO-1 domain 2 (Homo sapiens, UniProt Q07157, DEL264-264); details: peptide 10 uM, protein 5
# T14 construct: made in house; host or cells: E. coli (DH5alpha, BL21 or JM109)
# Method in brief: as §1
# T3 sequence (O14745 with tags, fused parts or gaps): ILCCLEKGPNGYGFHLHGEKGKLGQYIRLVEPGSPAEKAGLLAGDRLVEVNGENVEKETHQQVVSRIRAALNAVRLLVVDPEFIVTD
# T9 sequence (Q86UL8 with tags, fused parts or gaps): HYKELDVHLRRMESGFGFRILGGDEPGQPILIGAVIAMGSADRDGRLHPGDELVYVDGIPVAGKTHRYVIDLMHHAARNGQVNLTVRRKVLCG
# T12 sequence (O14908 131-216): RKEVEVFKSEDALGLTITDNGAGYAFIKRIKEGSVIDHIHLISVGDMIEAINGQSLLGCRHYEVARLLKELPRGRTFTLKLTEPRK
# T2 sequence (Q96NW7 1429-1537): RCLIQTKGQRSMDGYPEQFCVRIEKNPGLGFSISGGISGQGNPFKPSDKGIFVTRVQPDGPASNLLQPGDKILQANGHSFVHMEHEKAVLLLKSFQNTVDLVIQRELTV
# T4 sequence (Q96RT1 1313-1412): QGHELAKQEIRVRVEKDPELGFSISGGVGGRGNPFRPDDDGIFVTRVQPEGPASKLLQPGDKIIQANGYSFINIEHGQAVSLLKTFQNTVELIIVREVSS
# T7 sequence (P50479 with tags, fused parts or gaps DEL20-20/A39S): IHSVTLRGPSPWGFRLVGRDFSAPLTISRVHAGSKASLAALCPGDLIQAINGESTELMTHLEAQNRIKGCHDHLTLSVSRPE
# T13 sequence (Q99767 with tags, fused parts or gaps): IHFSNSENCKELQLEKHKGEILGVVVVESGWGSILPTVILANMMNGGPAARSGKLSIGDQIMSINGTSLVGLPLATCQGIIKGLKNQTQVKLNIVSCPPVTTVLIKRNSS
# T10 sequence (Q92796 with tags, fused parts or gaps): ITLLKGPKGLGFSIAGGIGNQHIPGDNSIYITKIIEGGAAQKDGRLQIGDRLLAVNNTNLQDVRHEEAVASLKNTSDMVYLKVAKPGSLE
# T11 sequence (Q9BYB0 638-747): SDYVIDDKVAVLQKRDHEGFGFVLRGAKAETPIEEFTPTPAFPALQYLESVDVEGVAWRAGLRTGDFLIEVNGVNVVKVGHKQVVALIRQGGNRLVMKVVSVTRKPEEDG
# T8 sequence (Q96QZ7 1143-1233): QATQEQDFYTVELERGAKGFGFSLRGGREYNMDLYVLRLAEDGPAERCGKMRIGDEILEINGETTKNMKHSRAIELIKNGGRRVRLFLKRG
# T5 sequence (Q5TCQ9 1040-1137 isoform Q5TCQ9-2): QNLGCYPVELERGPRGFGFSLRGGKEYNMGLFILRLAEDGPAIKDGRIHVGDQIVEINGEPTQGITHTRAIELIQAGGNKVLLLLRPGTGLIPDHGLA
# T14 sequence (Q07157 with tags, fused parts or gaps DEL264-264): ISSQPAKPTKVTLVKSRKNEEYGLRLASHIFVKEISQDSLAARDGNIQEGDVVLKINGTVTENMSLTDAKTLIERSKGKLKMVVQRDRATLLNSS
# T6 sequence (Q96JY6 1-91): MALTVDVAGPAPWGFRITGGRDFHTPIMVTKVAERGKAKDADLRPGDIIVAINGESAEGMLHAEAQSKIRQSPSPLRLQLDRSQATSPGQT
substance,measurement,setting,value
"20 mer peptide corresponding to the C-terminus of HPV16 E6 (PDZ ligand), biotinylated in binding assays; ends SSRTRRETQL (SEQ ID NO: 13) [HPV E6 #16]",OD S/N,DLG1 domain 1,2.98 and 4.18
same,Ave OD,Densin domain 1; A450 nm,0.4205 and 0.3505
same,OD S/N,Densin domain 1; vs GST only well,1.96 and 1.82
same,Ave OD,EBP50 #167.2 domain 1; A450 nm,0.3805 and 0.3555
same,OD S/N,EBP50 #167.2 domain 1; vs GST only well,1.94 and 2.28
same,Ave OD,ERBIN domain 1; A450 nm,0.36 and 0.342
same,OD S/N,ERBIN domain 1; vs GST only well,1.82 and 1.30
same,Ave OD,KIAA1634 domain 5; A450 nm,0.4025
same,OD S/N,KIAA1634 domain 5; vs GST only well,2.07
same,Ave OD,LIM Mystique domain 1; A450 nm,0.5955
same,OD S/N,LIM Mystique domain 1; vs GST only well,2.84
same,Ave OD,LIM-RIL domain 1; A450 nm,0.449
same,OD S/N,LIM-RIL domain 1; vs GST only well,1.60
same,Ave OD,MAGI 1 domain 6; A450 nm,0.71
same,OD S/N,MAGI 1 domain 6; vs GST only well,2.47
same,Ave OD,Magi2 domain 3; A450 nm,0.4165 and 0.359
same,OD S/N,Magi2 domain 3; vs GST only well,1.98 and 1.65
same,OD S/N,NeDLG domain 2,2.20 and 3.99
same,Ave OD,Shank 3 domain 1; A450 nm,0.396
same,OD S/N,Shank 3 domain 1; vs GST only well,2.61
same,Ave OD,TAX IP 2 domain 1; A450 nm,0.5085 and 0.478
same,OD S/N,TAX IP 2 domain 1; vs GST only well,2.37 and 2.48
same,Ave OD,X-11 beta domain 1; A450 nm,0.352
same,OD S/N,X-11 beta domain 1; vs GST only well,2.02
same,Ave OD,ZO-1 domain 2; A450 nm,0.518
same,OD S/N,ZO-1 domain 2; vs GST only well,3.02

# Source: patent US20100120700A1, “METHODS AND COMPOSITIONS FOR TREATING CERVICAL CANCER” (priority 2000, published 2010)
